Experiments:
[1] = test system: NCI-H1666 (Lung Adenocarcinoma); test: combination Emax (second highest fraction inhibited in the dose matrix, 72 h); higher = more inhibition; extreme values may be limits of the assay
In short: (§1)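 After 24 hours at 37°C and 5% CO2 in 1536-well plates, cells in DMEM/F12 or RPMI plus 10% FBS received two-drug dose matrices for 72 hours. Viability came from CellTiter-Glo 2.0 luminescence and was scaled as inhibition, anchored at 0 by vehicle wells and at 1 by blank wells. Combination Emax is taken as the second-highest inhibition in the matrix, and Bliss excess as the observed combination effect less EA + EB − EA·EB, with EA and EB the single-agent effects.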

FU97 (Gastric Carcinoma) = test: as above
In short: as §1

[2] = test system: HCC1954 (Breast Carcinoma); test: as above
In short: as §1

[3] = test system: NCI-H1693 (Lung Adenocarcinoma); test: Bliss excess, mean over the matrix (fraction); higher = more synergy
In short: as §1

[4] = test system: PANC-10-05 (Pancreatic Carcinoma); test: as above
In short: as §1

IGR-37 (Melanoma) = test: as above
In short: as §1

[5] = test system: TT2609-C02 (Thyroid Gland Carcinoma); test: as above
In short: as §1

[6] = test system: VCaP (Prostate Carcinoma); test: as above
In short: as §1

[7] = test system: A549 (Lung Adenocarcinoma); test: as above
In short: as §1

[8] = test system: ECC10 (Gastric Carcinoma); test: as above
In short: as §1

[9] = test system: HCC1954 (Breast Carcinoma); test: as above
In short: as §1

PA-1 (Ovarian Carcinoma) = test: as above
In short: as §1

[10] = test system: COLO-320-HSR (Colorectal Carcinoma); test: as above
In short: as §1

NY (Osteosarcoma) = test: as above
In short: as §1

[11] = test system: NCI-H2141 (Small Cell Lung Carcinoma); test: as above
In short: as §1

[12] = test system: NCI-H64 (Small Cell Lung Carcinoma); test: as above
In short: as §1

8-MG-BA (Glioblastoma) = test: as above
In short: as §1

[13] = test system: MDST8 (Colorectal Carcinoma); test: as above
In short: as §1

LN-405 (Glioblastoma) = test: as above
In short: as §1

[14] = test system: OS-RC-2 (Kidney Carcinoma); test: as above
In short: as §1
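Throughout, for Bliss excess, mean over the matrix: after 72 h of two-drug dosing.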

SMILES | combination Emax [1] | combination Emax (FU97 (Gastric Carcinoma)) | combination Emax [2] | Bliss excess [3] | Bliss excess [4] | Bliss excess (IGR-37 (Melanoma)) | Bliss excess [5] | Bliss excess [6] | Bliss excess [7] | Bliss excess [8] | Bliss excess [9] | Bliss excess (PA-1 (Ovarian Carcinoma)) | Bliss excess [10] | Bliss excess (NY (Osteosarcoma)) | Bliss excess [11] | Bliss excess [12] | Bliss excess (8-MG-BA (Glioblastoma)) | Bliss excess [13] | Bliss excess (LN-405 (Glioblastoma)) | Bliss excess [14]
Cc1c2c(nn1C)CSCc1cc(n(C)n1)CSc1cc(c3ccccc3c1)OCCCc1c(C(=O)O)n(C)c3c-2c(Cl)ccc13 [AZD5991] + C=CCn1c(=O)c2cnc(Nc3ccc(N4CCN(C)CC4)cc3)nc2n1-c1cccc(C(C)(C)O)n1 [AZD1775] (first compound max 1 µM, partner max 1 µM) | 0.338 | 0.436 | 0.978 | 0.0581 | -0.0551 | -0.0015 | 0.0087 | -0.011 | -0.0488 | 0.0696 | 0.0435 | -0.0288 | 0.045 | -0.0177 | -0.0145 | -0.0187 | -0.0123 | 0.0087 | 0.0077 | -0.0046
CC1(C)CCC(CN2CCN(c3ccc(C(=O)NS(=O)(=O)c4ccc(NCC5CCOCC5)c([N+](=O)[O-])c4)c(Oc4cnc5[nH]ccc5c4)c3)CC2)=C(c2ccc(Cl)cc2)C1 [Venetoclax] + CN(C)CCCOc1ccc(-c2ccc3ncc4c(c3c2)n(C2CCOCC2)c(=O)n4C)cn1 [AZD0156] (first compound max 1 µM, 7x7, partner max 1 µM) | 0.225 | 0.462 | 0.162 | -0.0123 | -0.079 | -0.0039 | -0.0351 | 0.032 | -0.0586 | 0.0243 | 0.0044 | 0.0367 | 0.0114 | -0.0939 | -0.0183 | -0.0149 | -0.0171 | -0.038 | -0.0256 | -0.0456
COc1nnc2ccc(N3CCC(c4ccc(OCCN5CCN(C)C(=O)[C@H]5C)cc4)CC3)nn12 [AZD5153] + C[C@@H]1COCCN1C2=NC(=NC(=C2)C3(CC3)[S@](=N)(=O)C)C4=C5C=CNC5=NC=C4 [AZD6738] (first compound max 1 µM, 7x7, partner max 10 µM) | 0.493 | 0.839 | 0.657 | -0.0383 | -0.0928 | -0.0149 | 0.0179 | -0.0521 | -0.0292 | 0.0654 | 0.0323 | -0.0502 | 0.0292 | -0.0188 | 0.043 | 0.0357 | -0.0849 | 0.0544 | -0.0235 | 0.0699
C=CCn1c(=O)c2cnc(Nc3ccc(N4CCN(C)CC4)cc3)nc2n1-c1cccc(C(C)(C)O)n1 [AZD1775] + C[C@@H]1COCCN1C2=NC(=NC(=C2)C3(CC3)[S@](=N)(=O)C)C4=C5C=CNC5=NC=C4 [AZD6738] (first compound max 1 µM, partner max 10 µM) | 0.49 | 0.373 | 0.77 | -0.0084 | -0.0611 | 0.0017 | -0.0026 | 0.006 | -0.0313 | 0.0364 | 0.111 | -0.01 | 0.0852 | -0.0386 | 0.0248 | 0.0015 | -0.032 | -0.0161 | -0.0025 | -0.0604
CN(CCO)CC[C@H](CSc1ccccc1)Nc1ccc(S(=O)(=O)NC(=O)c2ccc(N3CCC([C@@H](O)c4ccccc4-c4ccc(Cl)cc4)CC3)cc2)cc1S(=O)(=O)C(F)(F)F [AZD4320] + CN(C)CCCOc1ccc(-c2ccc3ncc4c(c3c2)n(C2CCOCC2)c(=O)n4C)cn1 [AZD0156] (first compound max 1 µM, 7x7, partner max 1 µM) | 0.141 | 0.258 | 0.327 | -0.0226 | -0.0489 | -0.0148 | -0.0325 | -0.0185 | -0.039 | 0.0096 | 0.0526 | -0.0528 | -0.0136 | -0.0432 | -0.0151 | 0.0003 | -0.0146 | -0.0419 | 0.0093 | -0.0706
CC(=O)c1c(C)c2cnc(Nc3ccc(N4CCNCC4)cn3)nc2n(C2CCCC2)c1=O [Palbociclib] + Cn1cnc2c(F)c(Nc3ccc(Br)cc3Cl)c(C(=O)NOCCO)cc21 [Selumetinib] (first compound max 10 µM, 7x7, partner max 10 µM) | 0.49 | 0.377 | 0.178 | -0.0306 | -0.0409 | 0.0324 | -0.0666 | -0.012 | -0.0413 | -0.0111 | -0.0152 | -0.0312 | -0.0316 | -0.0227 | -0.0432 | -0.014 | -0.0061 | -0.031 | -0.0566 | -0.0712
CC1(C)CCC(CN2CCN(c3ccc(C(=O)NS(=O)(=O)c4ccc(NCC5CCOCC5)c([N+](=O)[O-])c4)c(Oc4cnc5[nH]ccc5c4)c3)CC2)=C(c2ccc(Cl)cc2)C1 [Venetoclax] + Cn1cnc2c(F)c(Nc3ccc(Br)cc3Cl)c(C(=O)NOCCO)cc21 [Selumetinib] (first compound max 1 µM, 7x7, partner max 3 µM) | 0.575 | 0.314 | 0.186 | -0.0396 | -0.0386 | -0.0499 | -0.0518 | -0.0082 | -0.0401 | 0.0364 | 0.0025 | -0.0117 | -0.0062 | -0.0331 | -0.0303 | -0.0243 | -0.0216 | -0.0579 | -0.0598 | -0.101
Cc1cc2ncnn2cc1Nc1ncc2c(n1)n(C1CCOCC1)c(=O)n2C [AZD7648] + CN(C)CCCOc1ccc(-c2ccc3ncc4c(c3c2)n(C2CCOCC2)c(=O)n4C)cn1 [AZD0156] (first compound max 10 µM, 7x7, partner max 1 µM) | 0.431 | 0.382 | 0.307 | 0.0173 | -0.0059 | 0.0285 | -0.0188 | 0.0154 | -0.0192 | 0.0025 | 0.0111 | -0.0117 | 0.0391 | -0.0172 | 0.0033 | -0.0367 | 0.029 | 0.0012 | -0.0215 | 0.0028
NC1(C(=O)N[C@@H](CCO)c2ccc(Cl)cc2)CCN(c2ncnc3[nH]ccc23)CC1 [Capivasertib] + CCN(CCO)CCCOc1ccc2c(Nc3cc(CC(=O)Nc4cccc(F)c4)[nH]n3)ncnc2c1 [AZD2811] (first compound max 10 µM, 7x7, partner max 1 µM) | 0.388 | 0.369 | 0.87 | -0.0446 | -0.0943 | 0.0123 | -0.0075 | 0.0328 | -0.0365 | -0.039 | 0.0073 | 0.0219 | -0.0018 | -0.0531 | -0.0237 | 0.0427 | 0.0289 | 0.011 | -0.0767 | -0.0136
Cn1cnc2c(F)c(Nc3ccc(Br)cc3Cl)c(C(=O)NOCCO)cc21 [Selumetinib] + CC(C)n1c(=O)n(C)c2cnc3cc(F)c(-c4ccc(OCCCN5CCCCC5)nc4)cc3c21 [AZD1390] (first compound max 10 µM, 7x7, partner max 0.3 µM) | 0.529 | 0.273 | 0.227 | -0.0814 | -0.0783 | -0.0398 | -0.0387 | -0.0387 | -0.0534 | 0.0038 | -0.0277 | 0.0162 | -0.0182 | -0.0149 | -0.0386 | -0.0279 | -0.018 | -0.0468 | -0.0518 | -0.0371
CC(=O)c1c(C)c2cnc(Nc3ccc(N4CCNCC4)cn3)nc2n(C2CCCC2)c1=O [Palbociclib] + Cc1c2c(nn1C)CSCc1cc(n(C)n1)CSc1cc(c3ccccc3c1)OCCCc1c(C(=O)O)n(C)c3c-2c(Cl)ccc13 [AZD5991] (first compound max 10 µM, 7x7, partner max 1 µM) | 0.236 | 0.222 | 0.712 | -0.0168 | -0.0768 | -0.0335 | -0.0822 | -0.0284 | 0.0338 | 0.0435 | -0.09 | 0.0052 | -0.0746 | -0.0358 | -0.0791 | -0.0049 | -0.0424 | -0.0134 | -0.0445 | -0.0419
CCN(CCO)CCCOc1ccc2c(Nc3cc(CC(=O)Nc4cccc(F)c4)[nH]n3)ncnc2c1 [AZD2811] + C[C@@H]1COCCN1C2=NC(=NC(=C2)C3(CC3)[S@](=N)(=O)C)C4=C5C=CNC5=NC=C4 [AZD6738] (first compound max 1 µM, 7x7, partner max 10 µM) | 0.28 | 0.373 | 0.39 | -0.0654 | -0.0793 | -0.0366 | -0.0361 | -0.0864 | -0.106 | -0.0454 | -0.0263 | -0.0116 | -0.0366 | -0.0508 | -0.0873 | -0.075 | -0.0212 | -0.0174 | -0.0386 | -0.0449
COc1nnc2ccc(N3CCC(c4ccc(OCCN5CCN(C)C(=O)[C@H]5C)cc4)CC3)nn12 [AZD5153] + Cn1cnc2c(F)c(Nc3ccc(Br)cc3Cl)c(C(=O)NOCCO)cc21 [Selumetinib] (first compound max 1 µM, 7x7, partner max 10 µM) | 0.558 | 0.701 | 0.263 | 0.0093 | -0.0736 | 0.0624 | -0.0074 | -0.059 | -0.0703 | 0.0419 | -0.0118 | 0.0002 | -0.0095 | -0.005 | -0.0277 | 0.0021 | -0.007 | 0.0646 | -0.0171 | -0.0235
CC1(C)CCC(CN2CCN(c3ccc(C(=O)NS(=O)(=O)c4ccc(NCC5CCOCC5)c([N+](=O)[O-])c4)c(Oc4cnc5[nH]ccc5c4)c3)CC2)=C(c2ccc(Cl)cc2)C1 [Venetoclax] + COc1cc(Nc2ncc3c(n2)-c2ccc(Cl)cc2C(c2c(F)cccc2OC)=NC3)ccc1C(=O)O [Alisertib] (first compound max 1 µM, 7x7, partner max 10 µM) | 0.501 | 0.484 | 0.36 | -0.0862 | -0.0602 | -0.0148 | -0.0069 | 0.0574 | -0.0696 | -0.0281 | 0.0356 | 0.0385 | 0.0248 | -0.0009 | 0.171 | 0.194 | 0.0038 | -0.0242 | -0.0196 | -0.0547

— the supplement of paper PMC11061612
